According to patent publication US20240279232A1, “USE OF SUBSTITUTED 5-(4-METHYL-6-PHENYL-4H-BENZO[F]IMIDAZO[1,5-A][1,4] DIAZEPIN-3-YL)-1,2,4-O[…] THE TREATMENT OF INFLAMMATORY CONDITIONS” (priority 2021, published 2024):

Key:
[1] = tested on: HEPG2; experiment: Viability assay (CellTiter-Glo), HEPG2; type: cell-based, human; conditions: 120 μM, CellTiter-Glo
Procedure: (§1) The screen identified several compounds that reduced NO in activated microglia and macrophages. The tested compounds included achiral and chiral imidazodiazepines and benzodiazepines. In general, microglia were more sensitive to compound treatment with more pronounced reduction of NO than macrophages. […] Cell viability assays with HEK293 (kidney) and HepG2 (liver) cells were conducted in a concentration dependent manner. A limited number of compounds, such as GL-III-63, GL-III-76A, and GL-III-77, were toxic at 120 μM.
(§2) Viability assay. Human liver hepatocellular carcinoma (HEPG2) and human embryonic kidney 293T (HEK293T) cell lines were purchased (ATCC) and cultured in 75 cm^2 flasks (CellStar). Cells were grown in DMEM/High Glucose (Hyclone, #SH3024301) media to which non-essential amino acids (Hyclone, #SH30238.01), 10 mM HEPES (Hyclone, #SH302237.01), 5×10^6 units of penicillin and streptomycin (Hyclone, #SV30010), and 10% of heat inactivated fetal bovine serum (Gibco, #10082147) were added. Cells were harvested using 0.05% Trypsin (Hyclone, #SH3023601), washed with PBS, and dispensed into sterile white, optical bottom 384-well plates (NUNC, #142762). After three hours, small molecule DMSO solutions were transferred with a Tecan Freedom EVO liquid handling system equipped with a 100 nL pin tool (V&P Scientific). The controls were 3-dibutylamino-1-(4-hexyl-phenyl)-propan-1-one (25 mM in DMSO, positive control) and DMSO (negative control). The cells were incubated for 48 hours followed by the addition of CellTiter-Glo™, a luminescence-based cell viability assay (Promega, Madison, WI). All luminescence readings were performed on a Tecan Infinite M1000 plate reader. The assay was carried out in quadruplet with two independent runs. The data were analyzed by nonlinear regression.

[2] = tested on: RAW macrophages; experiment: Cell viability (CellTiter-Glo), RAW macrophages; type: cell-based, mouse; conditions: CellTiter-Glo
[3] = tested on: HEK293; experiment: Viability assay (CellTiter-Glo), HEK293; type: cell-based, human; conditions: 120 μM, CellTiter-Glo
Procedure: as §1, §2

[4] = tested on: Mouse microglia; experiment: Cell viability (CellTiter-Glo), mouse microglia; type: cell-based; conditions: 50 μM, CellTiter-Glo
Procedure: (§3) Next, a library of GABAAR ligands was investigated to identify compounds that reduce the production of NO as a marker of anti-inflammatory activity. […] NO was quantified with a Greiss assay. Cell viability was determined with CellTiter-Glo.
(§4) Nitric oxide production (Griess assay) and viability assay (CellTiter-Glo). 80 μL of mouse microglia culture (1×10^6 cells/mL) was plated into sterile 384 well plates representing non-activated wells. The remaining culture was activated with 50 ng/ml LPS (Invivogen, NC9836) and 150 U/mL IFNγ (R&D Systems, 485MI100) and distributed into the 384 well plates. […] Assay plates were incubated for approximately 24 hours (unless otherwise noted) at 37° C., centrifuged, and 40 μL of supernatant transferred to a new plate for analysis using the Griess Assay (Promega, Madison, WI). Absorbance at 530 nm was measured using a TECAN Infinite M1000 plate reader. The remaining 40 μL containing cells was analyzed for toxicity by the CellTiter-Glo Assay (Promega, Madison, WI). Luminescence was read using a TECAN Infinite M1000 plate reader.

[5] = tested on: Mouse microglia; experiment: NO production (Griess assay), LPS/IFNγ-activated mouse microglia; type: cell-based; conditions: for Inhibition of NO production (%) Mouse microglia 10 μM: 24 hours, 1 μM GABA, LPS/IFNγ
Procedure: as §3
Cell culture. A) HMC3 Microglia (CRL-3304) were maintained in treated cell culture flasks (Nunc, 156472) with EMEM (Corning, 10010CV) supplemented with 10% heat-inactivated FBS (Corning, 35011CV) and 100 U/mL penicillin and 100 μg/mL streptomycin (Hyclone, SV30010). Cultures were maintained at 37° C. and 5% CO2. When cells reached a density of 7×10^4 cells/mL, cultures were passaged with 0.25% Trypsin (Corning, 25-053-CI) and resuspended to a density no lower than 10,000 cells/mL. B) Human and mouse microglia cell lines were a gift from Dr. David Alvarez-Carbonell at Case Western Reserve University (Cleveland, OH). Microglia were cultured in cell culture treated flasks (Nunc, 156472) with DME/F12 media (Hyclone, SH30023.01) supplemented with 10% heat-inactivated FBS (Corning, 35011CV), 100 U/mL penicillin/100 μg/mL streptomycin (Hyclone, SV30010), and Normocin (Invivogen, ant-nr). Cultures were maintained at 37° C. and 5% CO2. […] Cultures were maintained at 37° C. and 5% CO2. Cells were passaged when they reached a density of approximately 3×10^6 cells/mL using cell scrapers (VWR, 10062-906) to lift cells from flask surface and resuspended at densities of approximately 500,000 cells/mL.
as §4

[6] = tested on: RAW macrophages; experiment: NO production (Griess assay), LPS/IFNγ-activated RAW264.7 macrophages; type: cell-based, mouse; conditions: for Inhibition of NO production (%) RAW macrophages 10 μM: 24 hours, 1 μM GABA, LPS/IFNγ
[7] = tested on: BZR (benzodiazepine site of GABAAR); experiment: GABAAR/BZR binding, rat brain homogenate with 3H-flunitrazepam; conditions: rat brain homogenate, 3H-flunitrazepam
Procedure, shortened: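 Primary screen at 10,000 nM; where displacement exceeded 50%, Ki came from nonlinear regression of concentration–response data (n=6). Radioligand was 3H-flunitrazepam at roughly Kd on rat brain homogenate, usually 90 min, room temperature, dark, with 10 μM reference compound for nonspecific binding, then filtration and scintillation counting.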

[8] = biological target: T1, DOR (δ opioid receptor) (Homo sapiens, UniProt P41143); experiment: DOR radioligand binding ([3H]-DADLE, HEK293 cell homogenates); conditions: Percent inhibition at 10,000 nM; [3H]-DADLE
T1 construct: expressed in transfected cells; host or cells: HEK293

[9] = biological target: T2, KOR (κ opioid receptor) (Homo sapiens, UniProt P41145); experiment: KOR radioligand binding ([3H]-U69593, HEK293 cell homogenates)
T2 construct: expressed in transfected cells; host or cells: HEK293 (stably transfected)

[10] = biological target: T3, MOR (μ opioid receptor) (Homo sapiens, UniProt P35372); experiment: MOR radioligand binding ([3H]-DAMGO, HEK293 cell homogenates)
T3 construct: expressed in transfected cells; host or cells: HEK293
T3 sequence (P35372 whole entry, species assumed): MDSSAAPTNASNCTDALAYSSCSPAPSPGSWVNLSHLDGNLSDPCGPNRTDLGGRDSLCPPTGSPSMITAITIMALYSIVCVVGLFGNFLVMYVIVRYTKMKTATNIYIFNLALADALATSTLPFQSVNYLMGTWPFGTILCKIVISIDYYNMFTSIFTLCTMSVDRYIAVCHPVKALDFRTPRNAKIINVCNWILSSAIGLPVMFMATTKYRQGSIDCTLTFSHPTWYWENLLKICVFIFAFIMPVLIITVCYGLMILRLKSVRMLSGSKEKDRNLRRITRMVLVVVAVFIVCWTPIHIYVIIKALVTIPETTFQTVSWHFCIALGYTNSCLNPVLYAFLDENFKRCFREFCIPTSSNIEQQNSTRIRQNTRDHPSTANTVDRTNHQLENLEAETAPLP

T2 sequence (P41145 whole entry): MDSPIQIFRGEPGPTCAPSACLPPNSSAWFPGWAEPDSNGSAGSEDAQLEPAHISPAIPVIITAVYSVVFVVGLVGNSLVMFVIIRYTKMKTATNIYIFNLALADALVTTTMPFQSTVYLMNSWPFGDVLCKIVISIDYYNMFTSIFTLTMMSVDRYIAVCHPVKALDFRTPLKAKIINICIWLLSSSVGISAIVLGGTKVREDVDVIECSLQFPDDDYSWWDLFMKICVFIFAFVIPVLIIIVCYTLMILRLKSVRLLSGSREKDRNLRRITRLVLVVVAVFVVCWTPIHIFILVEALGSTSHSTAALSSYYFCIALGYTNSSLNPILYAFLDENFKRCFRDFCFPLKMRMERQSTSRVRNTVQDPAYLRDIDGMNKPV
T1 sequence (P41143 whole entry): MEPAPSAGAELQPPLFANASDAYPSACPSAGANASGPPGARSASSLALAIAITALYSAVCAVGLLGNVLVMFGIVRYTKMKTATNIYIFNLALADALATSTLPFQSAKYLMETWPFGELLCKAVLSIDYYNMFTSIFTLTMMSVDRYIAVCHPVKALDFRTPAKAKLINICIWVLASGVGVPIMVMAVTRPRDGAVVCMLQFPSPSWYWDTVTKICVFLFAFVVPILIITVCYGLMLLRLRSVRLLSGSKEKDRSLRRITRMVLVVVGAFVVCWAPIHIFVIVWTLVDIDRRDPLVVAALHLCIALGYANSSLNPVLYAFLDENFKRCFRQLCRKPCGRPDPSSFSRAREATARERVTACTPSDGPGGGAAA

C#Cc1ccc2c(c1)C(c1ccccn1)=N[C@H](C)c1c(-c3nc(CC)no3)ncn1-2 [GL-III-97]
Cell viability (%) HEPG2 120 μM [1]: 100 ± 12%
Cell viability (%) RAW macrophages 50 μM [2]: 98 ± 3%
Cell viability (%) HEK293 120 μM [3]: 54 ± 9%
Cell viability (%) Mouse microglia 50 μM [4]: 100 ± 4%
Inhibition of NO production (%) Mouse microglia 10 μM [5]: 11 ± 6%
Inhibition of NO production (%) RAW macrophages 10 μM [6]: 6 ± 1%

CCNC(=O)c1ncn2c1[C@@H](C)N=C(c1ccccc1F)c1cc(Br)ccc1-2 [GL-III-67]
Cell viability (%) HEPG2 120 μM [1]: 100 ± 9%
Cell viability (%) RAW macrophages 50 μM [2]: 100 ± 7%
Cell viability (%) HEK293 120 μM [3]: 66 ± 6%
Cell viability (%) Mouse microglia 50 μM [4]: 85 ± 10%
Inhibition of NO production (%) Mouse microglia 10 μM [5]: 33 ± 1%
Inhibition of NO production (%) RAW macrophages 10 μM [6]: 4 ± 2%

CCc1noc(-c2ncn3c2[C@@H](C)N=C(c2ccccc2F)c2cc(Br)ccc2-3)n1 [GL-III-98, (R)-5-(8-Bromo-6-(2-fluorophenyl)-4-methyl-4H-benzo[f]imidazo[1,5-a][1,4]diazepin-3-yl)-3-ethyl-1,2,4-oxadiazole]
Cell viability (%) HEPG2 120 μM [1]: 56 ± 5%
Cell viability (%) RAW macrophages 50 μM [2]: 100 ± 11%
Cell viability (%) HEK293 120 μM [3]: 42 ± 8%
Cell viability (%) Mouse microglia 50 μM [4]: 83 ± 6%
inhibition at 10 µM ([5]; Mus musculus, Microglia, 24 h): 75 ± 9%
inhibition at 10 µM ([6]; Mus musculus, Macrophage, 24 h): 1 ± 4%

C#Cc1ccc2c(c1)C(c1ccccc1)=NCC(=O)N2 [GL-III-59]
Cell viability (%) HEPG2 120 μM [1]: 100 ± 2%
Cell viability (%) RAW macrophages 50 μM [2]: 100 ± 3%
Cell viability (%) HEK293 120 μM [3]: 100 ± 4%
Cell viability (%) Mouse microglia 50 μM [4]: 96 ± 4%
Inhibition of NO production (%) Mouse microglia 10 μM [5]: 43 ± 7%
Inhibition of NO production (%) RAW macrophages 10 μM [6]: 8 ± 1%

C#Cc1ccc2c(c1)C(c1ccccc1F)=NC(C)C(=O)N2C (stereo not shown) [GL-III-25]
Cell viability (%) HEPG2 120 μM [1]: 100 ± 5%
Cell viability (%) RAW macrophages 50 μM [2]: 100 ± 8%
Cell viability (%) HEK293 120 μM [3]: 93 ± 4%
Cell viability (%) Mouse microglia 50 μM [4]: 98 ± 4%
Inhibition of NO production (%) Mouse microglia 10 μM [5]: 25 ± 10%
Inhibition of NO production (%) RAW macrophages 10 μM [6]: 38 ± 9%

C#Cc1ccc2c(c1)C(c1ccccc1F)=N[C@@H](C)c1c(-c3nc(C(C)C)no3)ncn1-2 [GL-I-81, (S)-5-(8-Ethynyl-6-(2-fluorophenyl)-4-methyl-4H-benzo[f]imidazo[1,5-a][1,4]diazepin-3-yl)-3-isopropyl-1,2,4-oxadiazole]
BZR % ([7]; Percent inhibition at 10,000 nM): 83%
Ki [7]: 839 nM
Cell viability (%) RAW macrophages 50 μM [2]: 91 ± 7%
inhibition at 10 µM [8]: 25%
Cell viability (%) Mouse microglia 50 μM [4]: 94 ± 10%
Ki [9]: 127 nM
inhibition at 10 µM ([9]; Percent inhibition at 10,000 nM, [3H]-U69593): 93%
inhibition at 10 µM ([5]; Mus musculus, Microglia, 24 h): 64 ± 9%
inhibition at 50 µM ([5]; Mus musculus, Microglia, 24 h): 87 ± 2%
inhibition at 10 µM ([6]; Mus musculus, Macrophage, 24 h): 0%
inhibition at 50 µM ([6]; Mus musculus, Macrophage, 24 h): 6 ± 2%
Ki [10]: 2920 nM
inhibition at 10 µM ([10]; Percent inhibition at 10,000 nM, [3H]-DAMGO): 64%

O=C(O)c1ncn2c1CN=C(c1ccccc1)c1cc(Br)ccc1-2 [GL-I-50]
Cell viability (%) HEPG2 120 μM [1]: 100 ± 2%
Cell viability (%) RAW macrophages 50 μM [2]: 100 ± 9%
Cell viability (%) HEK293 120 μM [3]: 97 ± 12%
Cell viability (%) Mouse microglia 50 μM [4]: 88 ± 9%
Inhibition of NO production (%) Mouse microglia 10 μM [5]: 33 ± 6%
Inhibition of NO production (%) RAW macrophages 10 μM [6]: 0 ± 1%
